IC50 data for six molecules are collected here from US7851500B2, “Aminopyrazole kinase inhibitors” (Bristol-Myers Squibb Company, priority 2007, dated 2010).

The target in the experiment is IGF1-receptor (Homo sapiens, UniProt P08069). Nature of the experiment: IGF1-Receptor Tyrosine Kinase Assay. Type of experiment: biochemical. The conditions noted are these: ATP 25 μM; FL-peptide 1.5 μM; IGF1-Receptor 14 nM; 60 min room temperature; Caliper LabChip 3000; read-out: IGF-1R IC50. How it is done: D. IGF1-Receptor Tyrosine Kinase Assay
Sequence of IGF1-receptor (P08069 31-1367): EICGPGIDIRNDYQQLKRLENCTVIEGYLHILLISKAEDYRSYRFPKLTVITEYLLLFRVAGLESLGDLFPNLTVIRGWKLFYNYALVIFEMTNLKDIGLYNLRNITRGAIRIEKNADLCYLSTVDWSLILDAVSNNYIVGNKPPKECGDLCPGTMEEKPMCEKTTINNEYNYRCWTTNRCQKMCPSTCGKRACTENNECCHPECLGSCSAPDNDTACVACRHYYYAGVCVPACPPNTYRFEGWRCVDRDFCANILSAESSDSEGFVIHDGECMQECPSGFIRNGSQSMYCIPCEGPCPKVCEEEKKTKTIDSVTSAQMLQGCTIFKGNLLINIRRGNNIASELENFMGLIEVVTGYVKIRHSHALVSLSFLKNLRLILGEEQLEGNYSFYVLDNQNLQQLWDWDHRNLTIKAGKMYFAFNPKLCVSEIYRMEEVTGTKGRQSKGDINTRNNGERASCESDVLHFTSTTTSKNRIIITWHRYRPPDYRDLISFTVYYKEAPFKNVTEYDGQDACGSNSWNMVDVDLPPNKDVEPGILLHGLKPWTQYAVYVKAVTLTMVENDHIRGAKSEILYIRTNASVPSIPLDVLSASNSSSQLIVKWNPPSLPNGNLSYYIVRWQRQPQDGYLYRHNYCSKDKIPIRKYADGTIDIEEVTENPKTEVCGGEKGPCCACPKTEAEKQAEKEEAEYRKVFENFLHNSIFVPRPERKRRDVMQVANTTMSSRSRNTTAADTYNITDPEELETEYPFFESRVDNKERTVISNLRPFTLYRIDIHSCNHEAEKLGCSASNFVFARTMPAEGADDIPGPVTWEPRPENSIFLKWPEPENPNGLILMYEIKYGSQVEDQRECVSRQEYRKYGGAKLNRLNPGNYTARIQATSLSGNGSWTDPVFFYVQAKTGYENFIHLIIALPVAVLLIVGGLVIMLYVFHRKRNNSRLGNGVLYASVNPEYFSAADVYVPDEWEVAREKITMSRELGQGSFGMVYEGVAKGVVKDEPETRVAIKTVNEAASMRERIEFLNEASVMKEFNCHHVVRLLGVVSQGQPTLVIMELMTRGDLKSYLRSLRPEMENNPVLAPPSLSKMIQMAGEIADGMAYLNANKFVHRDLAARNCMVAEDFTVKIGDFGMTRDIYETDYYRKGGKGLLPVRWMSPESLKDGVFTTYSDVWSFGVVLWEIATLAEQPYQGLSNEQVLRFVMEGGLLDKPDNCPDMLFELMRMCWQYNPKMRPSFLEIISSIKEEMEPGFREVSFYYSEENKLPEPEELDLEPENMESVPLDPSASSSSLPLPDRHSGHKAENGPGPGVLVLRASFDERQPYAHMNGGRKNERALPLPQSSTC
The assays were performed in U-bottom 384-well plates. The final assay volume was 30 μl prepared from 15 μl additions of enzyme and substrates (fluoresceinated IGF1R substrate peptide and ATP) and test compounds in assay buffer (100 mM HEPES pH 7.4, 10 mM MnCl2, 0.015% Brij35 and 4 mM DTT). The reaction was initiated by the combination of IGF1-receptor with substrates and test compounds. The reaction was incubated at room temperature for 60 min. and terminated by adding 30 μl of 35 mM EDTA to each sample. The reaction mixture was analyzed on the Caliper LabChip 3000 by electrophoretic separation of the fluorescent substrate and phosphorylated product. Inhibition data were calculated by comparison to no enzyme control reactions for 100% inhibition and vehicle-only reactions for 0% inhibition. The final concentration of reagents in the assays is ATP, 25 μM; FL-peptide, 1.5 μM; IGF1-Receptor, 14 nM; and DMSO, 1.6%. Dose response curves were generated to determine the concentration required inhibiting 50% of kinase activity (IC50). Compounds were dissolved at 10 mM in dimethylsulfoxide (DMSO) and evaluated at eleven concentrations, each in duplicate. IC50 values were derived by non-linear regression analysis
Compounds described herein were tested in the above assay.
For orientation: IC50 means the midpoint of a concentration-inhibition curve. On to `CCOC(=O)c1cccc(Sc2cc(Nc3ncnn4cccc34)n[nH]2)c1` [Example 1, Ethyl 3-(3-(pyrrolo[1,2-f][1,2,4]triazin-4-ylamino)-1H-pyrazol-5-ylthio)benzoate], for which the 50% inhibitory concentration (IC50) was more than 25000 nM. In the case of `O=C(NC1CN(S(=O)(=O)c2ccccc2)C1)c1cccc(Sc2cc(Nc3ncnn4cccc34)n[nH]2)c1` [Example 3, N-(1-(Phenylsulfonyl)azetidin-3-yl)-3-(3-pyrrolo[1,2-f][1,2,4]triazin-4-ylamino-1H-pyrazol-5-ylthio)benzamide] it was 12.4 nM; in that of `NC(=O)c1cccc(Sc2cc(Nc3ncnn4cccc34)n[nH]2)c1` [Example 4, 3-(3-(Pyrrolo[1,2-f][1,2,4]triazin-4-ylamino)-1H-pyrazol-5-ylthio)benzamide], 4470 nM; in that of `CC(C)(C)OC(=O)N1CC(NC(=O)c2cccc(Sc3cc(Nc4ncnn5cccc45)n[nH]3)c2)C1` [Example 5], 295 nM. In the case of `O=C(NCCc1c[nH]cn1)c1cccc(Sc2cc(Nc3ncnn4cccc34)n[nH]2)c1` [Example 8, N-(2-(1H-Imidazol-4-yl)ethyl)-3-(3-(pyrrolo[1,2-f][1,2,4]triazin-4-ylamino)-1H-pyrazol-5-ylthio)benzamide] it was 3190 nM. In the case of `O=C(NC1CN(S(=O)(=O)c2ccc(F)cc2)C1)c1cccc(Sc2cc(Nc3ccccn3)n[nH]2)c1` [Example 10, N-(1-(4-Fluorophenylsulfonyl)azetidin-3-yl)-3-(3-(pyridin-2-ylamino)-1H-pyrazol-5-ylthio)benzamide] it was 15.1 nM.
